In patent publication US11576912B2, “Target genes in MYC-driven neoplasia” (The Board of Trustees of the Leland Stanford Junior …, priority 2017, dated 2023):

Assays:
[1] = IC50 determination, CellTiter-Glo cell viability, low MYC liver cancer cell lines and normal fibroblasts; format: cell-based; settings: Homo sapiens; range over normal fibroblast cell line and liver cancer cell lines with low MYC expression, 72 hours
Method: (§1) IC50 Determination Cells were seeded at a density of 1000-2000 cells/well in 96-well plates. Cells were treated with different concentrations of KPT-330 (1:3 dilution from 10 micromolar to 0.33 nanomolar) for 72 hours. MYC expression was shut off by treating the cells with doxycycline (100ng/ml). All experiments were performed in quadruplicates. Cell viability was determined using the CellTiter-Glo Luminescent Cell Viability Assay (Promega). The IC50 was calculated using the Prism software (GraphPad). The log-transformed concentration values and the normalized luminance data were fitted to a four-parameter logistic equation to derive the IC50 value.

[2] = IC50 determination, CellTiter-Glo cell viability, cell lines with high MYC expression; format: cell-based, human and mouse; settings: Mus musculus; range over MYC overexpressing cancer cell lines, 72 hours
Method: as §1

[3] = test system: primary liver tumors in the LAP-tTA/tet-O-MYC mouse model
Method: KPT-330 Treatment In Vivo and Monitoring the Tumor Size
The KPT-330 (Selleckchem) was dissolved in vehicle (1% Pluronic F-68 and 1% PVP-K29/32, 25 mg/kg) was administered by oral gavage to tumor-bearing mice three times a week for 6 doses total. A 7T MRI for small animals was used to image tumor both before and after treatment. Tumor volume was calculated based on the T2 weighted image stacks using the Osirix software. For short-term treatment, the mice were treated with either vehicle or KPT-330 for three doses and sacrificed the following day after the third dose.
Western Blot and Immunohistochemical Analysis
The following antibodies were used for Western blotting and IHC: MYC (9E10 for Western blot and Epitomics 1472-1 for IHC), Tubulin (Sigma), Cleaved caspase 3 and phospho-Histone H3 (Cell Signaling). Immunofluorescence or bright field pictures were taken with 20× objectives on a Leica DMI6000 B microscope and quantified using MetaMorph image analysis software.

[4] = test system: EC4 cells; experiment: Flow cytometric analysis of apoptosis (7-AAD/Annexin V); format: cell-based, mouse; settings: versus DMSO
Method: Flow Cytometric Analysis of Apoptosis For apoptosis staining, cells were stained with 7-AAD and PE-Annexin-V (Becton Dickinson) and analyzed on a FACScan flow cytometer following manufacturer's instructions. FACS data was analyzed with FlowJo software (Tree Star). The apoptotic cell populations were defined by positive staining of both Annexin-V and 7-AAD.

[5] = test system: EC4 cells; experiment: EU labeling and imaging of total RNA distribution (RNA export); format: cell-based, mouse; settings: EC4 cells overexpressing MYC, 150 nM KPT-330, 5 h EU labeling, compared with DMSO controls
Method: EU-Labeling and Visualization of Total RNA EC4 cells were labeled with 1 mM 5-ethynyl uridine (EU) for 5h in the presence of 150 nM KPT-330 or vehicle (DMSO control) at 37 degrees and 5% CO2. Cells were then fixed with 4% formaldehyde in PBS at room temperature for 20 minutes, washed consecutively with PBS, 50 mM NH4Cl/PBS, PBS (10 minutes each) and permeabilized with 0.2% TritonX100/PBS. After washing with PBS, EU was labeled with Alexa-647-azide using the Click-IT imaging kit (Invitrogen) following the manufacturer's instructions. Images were acquired on a DMI 6000 B (Leica) epifluorescence microscope. Mean fluorescence intensities in regions of interest in the cytoplasm and in the nucleus omitting nucleoli were determined using ImageJ.

[6] = short-term treatment, three doses

SMILES: O=C(/C=C\n1cnc(-c2cc(C(F)(F)F)cc(C(F)(F)F)c2)n1)NNc1cnccn1 [KPT-330]
- IC50 [1]: ≥ 300 nM
- IC50 [2]: 70 to 300 nM
- reduction in tumor volume ([3]; 25 mg/kg oral gavage three times a week, 6 doses, two weeks, MRI before and after): more than 95%
- histological examination of tumor sections ([3]; H&E staining of tumor sections): only sporadic tumor cells left
- proliferation or apoptosis in adjacent liver tissues (toxicity to normal hepatocytes) ([3]; mouse, in vivo): minimal toxicity to the normal hepatocytes
- tumor cell apoptosis by cleaved caspase-3 staining [3, 6]: significantly induced apoptosis
- tumor cell proliferation by phospho-histone H3 staining [3, 6]: completely suppressed the proliferation
- tumor regression according to MRI scan ([3]; two mice with smaller tumors, 6 doses, two weeks): complete tumor regression
- increase in apoptosis ([4]; EC4 cells with MYC OFF (doxycycline)): modest increase in apoptosis
- induction of tumor cell apoptosis ([4]; EC4 cells with MYC overexpression (MYC ON)): four-fold induction of tumor cell apoptosis
- RNA distribution in the cytoplasm [5]: significantly reduced RNA distribution in the cytoplasm
- RNA nuclear-cytoplasmic ratio [5]: increased RNA nuclear-cytoplasmic ratio
